The source of these data is publication PMC3532212 (PLoS ONE, 2012).

In data set [1] the test system is anesthetized rats. As to the kind of experiment: Left ventricular contractility (LV dP/dtmax) in anesthetized rats. The data set is classed as in vivo. The settings on record: anesthetized rat. As to the method:
The cardiovascular effects of FTY720 and BAF312 were tested in anesthetized rats (180–200 g). In brief, male Sprague Dawley rats (Charles River) were anesthetized with Inactin (110 mg/kg i.p.) and a tracheotomy performed. The femoral artery and veins were catheterized for measurement of mean arterial pressure and heart rate, collection of blood samples at 20-min intervals (0.2 mL/sample), and for compound infusion/hydration as previously described, [24]; blood samples were also withdrawn in vehicle-treated control rats. FTY720, infused as a hydrochloride salt (0.1, 0.3, 1.0 mg/kg/20-min free base equivalent solubilized in a 100% PEG-400 vehicle), or BAF312 (0.5, 1.5, 5.0 mg/kg/20-min solubilized in a 100% PEG-400 vehicle) were administered via three escalating 20-min infusions (0.011 mL/min) followed by a 1-hr post-treatment period. […] In a separate group of anesthetized rats in which left ventricular (LV) contractility was also recorded with a Millar pressure transducer introduced into the left ventricle, BAF312 was infused in the same dosing regimen as the studies described above (0.5, 1.5, 5.0 mg/kg/20-min solubilized in a 100% PEG-400 vehicle) and effects on LV dP/dtmax were recorded.

In data set [2] the test system is anesthetized rats. Description: Anesthetized rat cardiovascular study (mean arterial pressure, heart rate). Type of data set: in vivo. The following applies: for effect on heart rate of acute i.v. infusion: anesthetized rats, FTY720 0.1, 0.3, 1.0 mg/kg/20 min or BAF312 0.5, 1.5, 5.0 mg/kg/20 min; for heart rate, change below baseline / mean arterial pressure, change below baseline: FTY720 i.v. The method, then:
The cardiovascular effects of FTY720 and BAF312 were tested in anesthetized rats (180–200 g). In brief, male Sprague Dawley rats (Charles River) were anesthetized with Inactin (110 mg/kg i.p.) and a tracheotomy performed. The femoral artery and veins were catheterized for measurement of mean arterial pressure and heart rate, collection of blood samples at 20-min intervals (0.2 mL/sample), and for compound infusion/hydration as previously described, [24]; blood samples were also withdrawn in vehicle-treated control rats. FTY720, infused as a hydrochloride salt (0.1, 0.3, 1.0 mg/kg/20-min free base equivalent solubilized in a 100% PEG-400 vehicle), or BAF312 (0.5, 1.5, 5.0 mg/kg/20-min solubilized in a 100% PEG-400 vehicle) were administered via three escalating 20-min infusions (0.011 mL/min) followed by a 1-hr post-treatment period. A blood sample was withdrawn at 20, 40, 60, and 120-minutes for analysis of plasma concentrations of the parent compound, and in the case of FTY720, also the phosphorylated metabolite, (S)-FTY720-P. Statistical significance (p<0.05) was based on a t-test comparing treatment change from baseline (baseline was defined as the period from −30 to 0 minutes) vs. vehicle controls change from baseline at each timepoint without adjustment for multiple comparisons. In a separate group of anesthetized rats in which left ventricular (LV) contractility was also recorded with a Millar pressure transducer introduced into the left ventricle, BAF312 was infused in the same dosing regimen as the studies described above (0.5, 1.5, 5.0 mg/kg/20-min solubilized in a 100% PEG-400 vehicle) and effects on LV dP/dtmax were recorded.

Another data set deals with T1, human S1P3 (Homo sapiens, UniProt Q99500).
T1 construct: host or cells: U2OS (Tango EDG3-bla)
As to the kind of experiment: B arrestin recruitment assay, Tango EDG3-bla U2OS cells. The data set is classed as cell-based. The settings on record: 18 hours agonist incubation. The method, then: (§1) Tango™ EDG1-bla U2OS cells (Human S1P1), Tango™ EDG3-bla U2OS cells (human S1P3), Tango™ EDG6-bla U2OS cells (human S1P4) and Tango™ EDG8-bla U2OS cells (human S1P5) cell lines were cultured and assayed according to manufacturers instructions with one modification; agonists incubated on the cells for 18 hours prior to addition of the GenBlazer substrate. Final DMSO concentration in the assay is 1%.

Another data set deals with T2, Human S1P1 (Homo sapiens, UniProt P21453).
T2 construct: host or cells: U2OS (Tango EDG1-bla)
As to the kind of experiment: B arrestin recruitment assay, Tango EDG1-bla U2OS cells. The data set is classed as cell-based. The settings on record: 18 hours agonist incubation. The method, then: as §1
(In general: Recruitment of arrestin is a read-out of receptor activation apart from second messengers.)

The next data set deals with T3, human S1P5 (Homo sapiens, UniProt Q9H228).
T3 construct: host or cells: U2OS (Tango EDG8-bla)
Description: B arrestin recruitment assay, Tango EDG8-bla U2OS cells. The data set is classed as cell-based. The settings on record: 18 hours agonist incubation. As to the method:
as §1

Data set [3] deals with rats. Description: Urinary sodium excretion in rats. Type of data set: in vivo, rat. The settings on record: subset of telemetry rats administered FTY720; unpublished preliminary observation.
A further data set concerns patients. More on the design: method as in PMID 20089954. The following applies: 1-yr trial; cited from earlier work.
Data set [4] has as its system rats. More on the design: method as in PMID 12352874. The settings on record: FTY720 5 mg/kg/d; cited from earlier work.
[5] abbreviates: anesthetized rat, end of 0.1 mg/kg/20 min infusion.
Setting [6] is: anesthetized rat, end of 0.3 mg/kg/20 min infusion.
The mark [7] stands for this setting: anesthetized rat, end of 1.0 mg/kg/20 min infusion.

Molecules are shown by their SMILES.

T3 sequence (Q9H228 whole entry): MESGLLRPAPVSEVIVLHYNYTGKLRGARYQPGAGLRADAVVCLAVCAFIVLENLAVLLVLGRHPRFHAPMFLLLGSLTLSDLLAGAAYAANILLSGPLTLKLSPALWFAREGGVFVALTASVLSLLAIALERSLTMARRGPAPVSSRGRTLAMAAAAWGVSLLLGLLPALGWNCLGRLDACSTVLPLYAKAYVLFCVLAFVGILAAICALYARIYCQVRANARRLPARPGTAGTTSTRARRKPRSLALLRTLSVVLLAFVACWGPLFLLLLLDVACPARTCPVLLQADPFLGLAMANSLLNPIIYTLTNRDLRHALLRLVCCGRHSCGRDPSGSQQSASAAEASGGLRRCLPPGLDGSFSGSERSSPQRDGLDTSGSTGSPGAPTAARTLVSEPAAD
T2 sequence (P21453 whole entry): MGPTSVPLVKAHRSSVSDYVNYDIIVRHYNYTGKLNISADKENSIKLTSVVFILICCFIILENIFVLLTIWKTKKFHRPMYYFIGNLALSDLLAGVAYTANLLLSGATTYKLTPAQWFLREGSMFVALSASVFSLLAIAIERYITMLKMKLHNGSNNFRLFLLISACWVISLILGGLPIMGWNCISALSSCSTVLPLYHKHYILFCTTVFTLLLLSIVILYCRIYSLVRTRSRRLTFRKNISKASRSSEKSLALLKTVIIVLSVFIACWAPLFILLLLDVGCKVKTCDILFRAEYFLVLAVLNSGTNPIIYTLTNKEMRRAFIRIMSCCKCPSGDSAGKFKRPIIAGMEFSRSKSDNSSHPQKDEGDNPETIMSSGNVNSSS
T1 sequence (Q99500 whole entry): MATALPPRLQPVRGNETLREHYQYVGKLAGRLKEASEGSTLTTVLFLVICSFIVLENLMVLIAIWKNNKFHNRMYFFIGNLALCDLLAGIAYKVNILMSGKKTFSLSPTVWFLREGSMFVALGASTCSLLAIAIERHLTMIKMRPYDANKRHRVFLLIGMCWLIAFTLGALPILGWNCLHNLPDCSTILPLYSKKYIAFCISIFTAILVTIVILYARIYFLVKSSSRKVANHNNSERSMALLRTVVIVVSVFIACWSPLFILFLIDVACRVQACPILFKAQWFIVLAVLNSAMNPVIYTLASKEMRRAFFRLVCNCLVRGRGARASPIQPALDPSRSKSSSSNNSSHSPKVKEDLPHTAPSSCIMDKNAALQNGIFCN

As a reminder, the EC50 is the concentration that produces a half-maximal response. High values mean a less potent agent, low ones a more potent agent. As for `CCc1cc(/C(C)=N/OCc2ccc(C3CCCCC3)c(C(F)(F)F)c2)ccc1CN1CC(C(=O)O)C1` [BAF312], the “decrease in dP/dt” value in the data set on anesthetized rats [1] (BAF312, 5.0 mg/kg dose group) is “not maintained”. Also, the “LV dP/dtmax, below values in vehicle control animals” value in the data set with anesthetized rats [1] (BAF312, end of the 1.5 mg/kg i.v. infusion) is −5±4%. In the data set on anesthetized rats [2] (anesthetized rat, BAF312 0.5, 1.5, 5.0 mg/kg/20-min i.v.), the “effect on mean arterial pressure” value is recorded as “no effect”. Further, the “time heart rate remained statistically reduced” value with anesthetized rats [2] (anesthetized rat, BAF312 i.v. infusion) is 30 min. In addition, the “heart rate, change from baseline” value with anesthetized rats [2] (anesthetized rat, BAF312 i.v., 10-min into the first infusion period (0.5 mg/kg/20 min), vehicle −6±4) is −51±8 beats/min. Further, in the data set with anesthetized rats [2] (anesthetized rat, BAF312 i.v., latter half of the 60-min infusion), the “heart rate vs vehicle” value is given as “not different from vehicle controls”. In addition, in the data set on anesthetized rats [2], the “effect on heart rate of acute i.v. infusion” value is “acute bradycardia”. The EC50 on human S1P3 is more than 10000 nM; on Human S1P1, 2.5 nM; on human S1P5 it was 0.8 nM.

Turning to `CCCCCCCCc1ccc(CCC(N)(CO)CO)cc1` [FTY720], the urinary sodium excretion entry with rats [3] is on record as “reduction in urinary sodium excretion”. Besides, in the data set on patients, the hypertension in patients was 2–3 mmHg. Moreover, the “heart rate, change below baseline” value was −71±26 beats/min in the data set on anesthetized rats [2] (setting [5]), −139±37 beats/min in the data set with anesthetized rats [2] (setting [6]) and −173±26 beats/min with anesthetized rats [2] (setting [7]). Further, the “mean arterial pressure, change below baseline” value in the data set with anesthetized rats [2] (setting [5]) was −9±3 mmHg; in the data set on anesthetized rats [2] (setting [6]), −22±4 mmHg; in the data set with anesthetized rats [2] (setting [7]) it was −24±4 mmHg. Also, in the data set on anesthetized rats [2], the “effect on heart rate of acute i.v. infusion” value is “acute bradycardia”. Further, the “24-hr sodium excretion values and fractional excretion of sodium” value in the data set with rats [4] is given as “elicited reductions”.
